Laboratory results taken from patent US9925263B2, “Liquid pharmaceutical formulations for injection comprising procaine and uses thereof” (EAGLE BIOLOGICS, INC., priority 2013, dated 2018).

Columns and labels:
TYSABRI® = experiment: Viscosity of aqueous solutions of TYSABRI® with viscosity-lowering agents; format: physicochemical; details: 230 ± 2 mg/mL TYSABRI; 0.25M agent; 25° C., pH 7.0
REMICADE® = experiment: Viscosity of aqueous solutions of […]® with viscosity-lowering agents; format: physicochemical; details: 0.25M agent, 25° C., pH 7.0
Procedure: (§1) (unless otherwise indicated).
An extrapolated zero-shear viscosity was determined from a plot of absolute viscosity versus shear rate.
Following reconstitution, the viscosity of each solution was measured using the microfluidic viscometer as described in previous examples. The solutions were then back-loaded into 1 mL BD insulin syringes with 27, 29, or 31 gauge fixed needles. The force required to extrude the concentrated […]® solutions was then measured using an Instron at a rate of displacement equivalent to a fluid flow rate of 3 mL/min. The expelled solution was collected from the syringe and analyzed by size-exclusion chromatography.

biosimilar ERBITUX® = experiment: Viscosity of aqueous solutions of biosimilar ERBITUX® with viscosity-lowering agents; details: pH 7.0; for Viscosity / Fold Reduction: 0.25M agent; for Fold Reduction: vs phosphate buffer
Procedure: All viscosities of well-mixed aqueous mAb solutions were measured using either a mVROC microfluidic viscometer (RheoSense) or a DV2T cone and plate viscometer (Brookfield; “C & P”) after a 5 minute equilibration at 25° C. (unless otherwise indicated). The mVROC viscometer was equipped with an “A” or “B” chip, each manufactured with a 50 micron channel. Typically, 0.10 mL of protein solution was back-loaded into a gastight microlab instrument syringe (Hamilton; 100 μL), affixed to the chip, and measured at multiple flow rates, approximately 20%, 40%, and 60% of the maximum pressure for each chip. […] An average absolute viscosity and standard deviation was then calculated from at least these three measurements. The C & P viscometer was equipped with a CPE40 or CPE52 spindle (cone angle of 0.8° and 3.0°, respectively) and 0.50 mL samples were measured at multiple shear rates between 2 and 400 s^−1. […] An extrapolated zero-shear viscosity was then determined from a plot of dynamic viscosity versus shear rate for the samples measured on a DV2T cone and plate viscometer. The extrapolated zero-shear viscosities reported are the average and standard deviation of at least three measurements.
First, Polysorbate 80 was removed using DETERGENT-OUT® TWEEN® Medi Columns (G-Biosciences). […] The collected protein solution was freeze-dried. The dried protein cakes, containing protein and buffer salts or agent, were reconstituted to a final volume of 0.15-1.3 mL. […] Reported protein concentrations represent the range of all protein samples included in each Table or Figure. Specifically, reported values are the median plus or minus half the range. Extrapolated zero-shear using an experimentally determined extinction coefficient of 1.4 L/g·cm and viscosities reported were measured on a DV2T cone and plate viscometer.
The final concentration of CSAL upon reconstitution in an aqueous CSAL solution ranged from 0.25 M to 0.50 M.
Specifically, 20 mM solutions of the viscosity-lowering agents of interest were used for buffer exchange, and the lyophilized cakes were reconstituted to 0.25 M of each viscosity-lowering agent. […] The sample was first aliquoted. […] The dried protein cakes, containing protein and viscosity-lowering agent (and a negligible amount of buffer salts) were reconstituted to a final volume of approximately 0.10 mL and viscosity-lowering agent concentration as previously described.
First, Polysorbate was removed from the commercially obtained mAb solutions.
Specifically, 20 mM solutions of the salts of interest were used for buffer exchange, and the lyophilized cakes were reconstituted to contain 0.25 M of each agent. Viscosities were measured using either a RheoSense mVROC microfluidic viscometer equipped with an “A” or “B” chip or a DV2T cone and plate viscometer.
Subsequently, the aqueous drug product was purified, buffer exchanged, concentrated, dried, reconstituted, and analyzed as described in the same manner. Viscosities reported were measured on a RheoSense mVROC microfluidic viscometer.

HERCEPTIN® = experiment: Viscosity of aqueous solutions of HERCEPTIN® with viscosity-lowering agents; format: physicochemical; details: 0.25M salt, 25° C., pH 7.0
Procedure: All viscosities of well-mixed aqueous mAb solutions were measured using either a mVROC microfluidic viscometer (RheoSense) or a DV2T cone and plate viscometer (Brookfield; “C & P”) after a 5 minute equilibration at 25° C. (unless otherwise indicated). The mVROC viscometer was equipped with an “A” or “B” chip, each manufactured with a 50 micron channel. Typically, 0.10 mL of protein solution was back-loaded into a gastight microlab instrument syringe (Hamilton; 100 μL), affixed to the chip, and measured at multiple flow rates, approximately 20%, 40%, and 60% of the maximum pressure for each chip. […] An average absolute viscosity and standard deviation was then calculated from at least these three measurements. The C & P viscometer was equipped with a CPE40 or CPE52 spindle (cone angle of 0.8° and 3.0°, respectively) and 0.50 mL samples were measured at multiple shear rates between 2 and 400 s^−1. Specifically, samples were measured for 30 seconds each at 22.58, 24.38, 26.25, 28.13, 30, 31.88, 45, 67.5, 90, 112.5, 135, 157.5, 180, 202.5, 247, 270, 292.5, 315, 337.5, 360, 382, 400 s^−1, starting at a shear rate that gave at least 10% torque, and continuing until instrument torque reached 100%. An extrapolated zero-shear viscosity was then determined from a plot of dynamic viscosity versus shear rate for the samples measured on a DV2T cone and plate viscometer. The extrapolated zero-shear viscosities reported are the average and standard deviation of at least three measurements.
Viscosities were measured using a RheoSense mVROC microfluidic viscometer equipped with an “A” or “B” chip.
Viscosities reported were measured on a RheoSense mVROC microfluidic viscometer.

biosimilar AVASTIN® = experiment: Viscosity of aqueous solutions of biosimilar AVASTIN® with viscosity-lowering agents; format: physicochemical; details: 200 ± 5 mg/mL mAb, pH 7.0, 25° C.; [Salt] 0.25 M of anion; C & P viscometer
branded ERBITUX® = experiment: Viscosity of aqueous solutions of branded ERBITUX®; format: physicochemical; details: 224 ± 4 mg/mL mAb; phosphate buffer or 0.25M BSAA; 25° C., pH 7.0
From the text: as §1

Work on N=C(N)NCCC[C@H](N)C(=O)O.O=S(=O)(O)c1ccccc1 [BSAA, benzenesulfonic acid arginine] yielded a Viscosity (TYSABRI®) of 34.9 ± 1.3 cP, a Viscosity (REMICADE®; 166 ± 4 mg/mL REMICADE) of 26.7 ± 1.2 cP and a Viscosity (REMICADE®; 222 ± 6 mg/mL REMICADE) of 92.3 ± 1.4 cP. The Viscosity (biosimilar ERBITUX®; 222 ± 5 mg/mL mAb, 25° C.) was 53.4 ± 5.5 cP, the “Biosimilar ERBITUX ® viscosity” value (biosimilar ERBITUX®; 224 ± 4 mg/mL mAb, phosphate buffer or 0.25M BSAA, 25° C.) was 53.4 ± 5.5 cP and the Viscosity (biosimilar ERBITUX®; 225 ± 5 mg/mL mAb, 20° C.) was 85.2 ± 0.6 cP. The Viscosity (biosimilar ERBITUX®; 225 ± 5 mg/mL mAb, 25° C.) was 61.3 ± 0.9 cP, the Viscosity (biosimilar ERBITUX®; 225 ± 5 mg/mL mAb, 30° C.) was 50.5 ± 1.9 cP and the “Fold Reduction” value (biosimilar ERBITUX®; 222 ± 5 mg/mL mAb, 25° C.) was roughly 21 fold. The “Fold Reduction” value (biosimilar ERBITUX®; 222 ± 5 mg/mL mAb, 25° C., listed as BSA Arginine) was 21.2 fold, the Viscosity (HERCEPTIN®; 254 ± 3 mg/mL HERCEPTIN) was 75.4 ± 5.0 cP and the Viscosity (HERCEPTIN®; 270 ± 6 mg/mL HERCEPTIN) was 115 ± 6 cP. The Viscosity (biosimilar AVASTIN®) was 75.3 ± 0.4 cP and the “Branded ERBITUX ® viscosity” value (branded ERBITUX®) was 44.1 ± 0.5 cP.
